Assays:
[1] = ^13C breath test, oral administration, diabetic vs normal rats; assay type: in vivo, rat; conditions: for slope from 20 to 30 min after the administration / Δ^13C value (‰) at 30 min after the administration: 300 mg/kg orally, Example 6
Protocol: As test animals, male Sprague-Dawley strain (SD) neonatal rats were purchased from Nippon Charles River K. K. together with their lactating rats. They were bred at 23±2° C. under 55±10% humidity before use. Insulin secretion-deficient type diabetes was generated by administering streptozotocin (STZ) to neonatal rats (“Saibokogaku (Cell Engineering)”, Extra Issue, medical Experiment Manual Series, Strategy for Study of Diabetes, edited by Susumu Seino and Yoshikazu Oka, published by Shujunsha Co., Japan). STZ was subcutaneously administered to 2-day-old rats at a dose of 90 mg/kg. The STZ had been dissolved in a citrate buffer (pH 4.5) and was administered within 5 min after the dissolution. Two days after the administration, blood was collected by cardiac puncture, and the casual blood sugar level of each rat was measured with Terumo […] (blood sugar measurement set). […] However, their fasting blood sugar levels increase only slightly and remain at almost normal levels. According to the standards stipulated by the Japan Diabetes Society (1982), those individuals with a fasting blood sugar level (in venous whole blood) of […] or more are regarded as having diabetes (“[…] (Diabetes Test Manual)”, edited by Yukio […], published by Nanko-Do Co., Japan). Then, those rats with a fasting blood sugar level of less than 120 mg/dl (and with a casual blood sugar level of 250 mg/dl or more) which are not regarded as having diabetes in a fasting blood sugar level test were selected from the above-described rats with insulin secretion-deficient type diabetes and used as a model of light diabetes. Breath tests were carried out according to the method as described in (2)-1 or (2)-2 below on diabetic rats prepared in (1) above (8-10-week-old) and normal rats (8-10-week-old). Δ^13C (‰)=[(^13C t min-^13C 0 min)/^13C std]×1000 […] A blood sample was collected from the tail vein, and its sugar level was determined using Terumo […] (blood sugar measurement set). The exhalation was sucked with a stroke pump 18 (variable stroke pump VS-500; Shibata Scientific Technology) at a rate of 100-300 ml/min and introduced directly into a flow cell in ^13CO2 Analyzer EX-130S (Japan Spectroscopic Co., Ltd.) 20. […] Pure Drier ([…] Pure Inc.) was located between the rat holder and the stroke pump 18 to remove moisture in the exhalation (FIG. 1). […] The data output from the ^13CO2 analyzer 20 were incorporated into a personal computer 21 (Apple Power Macintosh 8500) after AD conversion. Using the data processing software Lab VIEW (National Instruments), data on ten points at every 100 msec were added up and averaged at intervals of 5 sec and then converted into ^13C atom %, Δ^13C (‰) and CO2 gas concentration (%), to thereby perform a continuous measurement ^13C breath test. […] Δ^13C (‰) was calculated by the formula described above.

[2] = ^13C breath test, intravenous administration (femoral vein), diabetic vs normal rats; assay type: in vivo, rat
Excerpt: As test animals, male Sprague-Dawley strain (SD) neonatal rats were purchased from Nippon Charles River K. K. together with their lactating rats. […] Insulin secretion-deficient type diabetes was generated by administering streptozotocin (STZ) to neonatal rats (“Saibokogaku (Cell Engineering)”, Extra Issue, medical Experiment Manual Series, Strategy for Study of Diabetes, edited by Susumu Seino and Yoshikazu Oka, published by Shujunsha Co., Japan). STZ was subcutaneously administered to 2-day-old rats at a dose of 90 mg/kg. […] Two days after the administration, blood was collected by cardiac puncture, and the casual blood sugar level of each rat was measured with Terumo […] (blood sugar measurement set). […] Breath tests were carried out according to the method as described in (2)-1 or (2)-2 below on diabetic rats prepared in (1) above (8-10-week-old) and normal rats (8-10-week-old). […] A blood sample was collected from the tail vein, and its sugar level was determined using Terumo […] (blood sugar measurement set). […] Fine Science Tools Inc.).

[3] = diabetic rats, 50 mg/kg orally, Example 33
[4] = normal rats, 50 mg/kg orally, Example 33
[5] = diabetic rats, 45 mg/kg orally, Example 26
[6] = normal rats, 45 mg/kg orally, Example 26
[7] = diabetic rats, 20 mg/kg from the femoral vein, Example 21
[8] = normal rats, 20 mg/kg from the femoral vein, Example 21
[9] = diabetic rats, 50 mg/kg from the femoral vein, Example 16
[10] = normal rats, 50 mg/kg from the femoral vein, Example 16
[11] = diabetic rats, 10 mg/kg from the femoral vein, Example 15
[12] = normal rats, 10 mg/kg from the femoral vein, Example 15
[13] = diabetic rats, 60 mg/kg orally, Example 17
[14] = normal rats, 60 mg/kg orally, Example 17
[15] = diabetic rats, 20 mg/kg from the femoral vein, Example 11
[16] = normal rats, 20 mg/kg from the femoral vein, Example 11
[17] = diabetic rats, 50 mg/kg from the femoral vein, Example 35
[18] = normal rats, 50 mg/kg from the femoral vein, Example 35
[19] = diabetic rats, 50 mg/kg from the femoral vein, Example 27
[20] = normal rats, 50 mg/kg from the femoral vein, Example 27
[21] = diabetic rats, 40 mg/kg from the femoral vein, Example 36
[22] = normal rats, 40 mg/kg from the femoral vein, Example 36
[23] = diabetic rats, 30 mg/kg orally, Example 7
[24] = normal rats, 30 mg/kg orally, Example 7

In the case of `CCCCCCC[13C](=O)OCC(CO[13C](=O)CCCCCCC)O[13C](=O)CCCCCCC` [1,1,1-^13C-trioctanoin], the “time course of Δ^13C values (‰)” value [1, 3] was “continued increasing up to 30 min”, the “Δ^13C value (‰) at 20 min after the administration” value (“Δ^13C value (‰) at 20 min” for short) [1, 3] was 150.72±22.48 ‰ and the “time course of Δ^13C values (‰)” value [1, 4] was “continued increasing up to 30 min”. For the same molecule, the “Δ^13C value (‰) at 20 min” value [1, 4] was 110.16±16.08 ‰.
With `NC(CSSCC(N)[13C](=O)O)[13C](=O)O` (centres unmarked) [1-^13C-cystine] the “slope from 5 to 10 min after the administration” value (from here on “slope from 5 to 10 min”) [1, 5] was 46.82±2.94 ‰/5 min, the “time course of Δ^13C values (‰)” value [1, 5] was “continued increasing up to 30 min” and the “Δ^13C value (‰) at 10 min after the administration” value (shortened to “Δ^13C value (‰) at 10 min”) [1, 5] was 69.15±6.44 ‰. For the same molecule, the “slope from 5 to 10 min” value [1, 6] was 30.86±10.06 ‰/5 min, the “time course of Δ^13C values (‰)” value [1, 6] was “continued increasing up to 30 min” and the “Δ^13C value (‰) at 10 min” value [1, 6] was 45.26±8.68 ‰.
With `O=[13C](O)C1CCCN1` (centres unmarked) [1-^13C-proline] the “time course of Δ^13C values (‰)” value [2, 7] was “increased up to about 9 min after the administration of 1-^13C-proline, but thereafter decreased gradually up to 20 min”, the “Δ^13C value (‰) at 20 min” value [2, 7] was 115.77±6.61 ‰ and the “time course of Δ^13C values (‰)” value [2, 8] was “increased up to about 9 min after the administration of 1-^13C-proline, but thereafter decreased gradually up to 20 min”. For the same molecule, the “Δ^13C value (‰) at 20 min” value [2, 8] was 92.27±11.10 ‰.
In the case of `N[C@@H](CO)[13C](=O)O` [1-^13C-serine], the “slope from 1 to 4 min after the administration” value [2, 9] was 158.13±41.24 ‰/3 min, the “time course of Δ^13C values (‰)” value [2, 9] was “increased sharply up to about 8 min after the administration, but thereafter decreased gradually up to 20 min” and the “Δ^13C value (‰) at 10 min” value [2, 9] was 228.08±43.45 ‰. The “slope from 1 to 4 min after the administration” value [2, 10] was 84.17±11.38 ‰/3 min, the “time course of Δ^13C values (‰)” value [2, 10] was “increased up to about 8 min after the administration of 1-^13C-serine, and thereafter remained at an almost constant level” and the “Δ^13C value (‰) at 10 min” value [2, 10] was 127.79±10.69 ‰.
With `N[C@@H](Cc1c[nH]c2ccccc12)[13C](=O)O` [1-^13C-tryptophan] the “slope from 10 to 15 min after the administration” value [2, 11] was 4.46±0.49 ‰/5 min, the “time course of Δ^13C values (‰)” value [2, 11] was “continued increasing up to 20 min” and the “Δ^13C value (‰) at 20 min” value [2, 11] was 19.42±4.37 ‰. For the same molecule, the “slope from 10 to 15 min after the administration” value [2, 12] was 1.20±0.93 ‰/5 min, the “time course of Δ^13C values (‰)” value [2, 12] was “continued increasing up to 20 min” and the “Δ^13C value (‰) at 20 min” value [2, 12] was 8.10±0.77 ‰.
In the case of `N[C@@H](C[13c]1ccc(O)cc1)C(=O)O` [1-^13C-tyrosine], the “slope from 5 to 10 min” value [1, 13] was 79.62±19.90 ‰/5 min, the “time course of Δ^13C values (‰)” value [1, 13] was “increased up to about 20 min after the administration, but thereafter decreased gradually up to 30 min” and the “Δ^13C value (‰) at 20 min” value [1, 13] was 205.30±51.43 ‰. For the same molecule, the “slope from 5 to 10 min” value [1, 14] was 27.52±17.10 ‰/5 min, the “time course of Δ^13C values (‰)” value [1, 14] was “continued increasing up to 30 min” and the “Δ^13C value (‰) at 20 min” value [1, 14] was 73.96±35.10 ‰.
For `CC(C)[C@H](N)[13C](=O)O` [1-^13C-valine], the “slope from 2 to 4 min after the administration” value (shortened to “slope from 2 to 4 min”) [2, 15] was 38.55±3.15 ‰/2 min, the “time course of Δ^13C values (‰)” value [2, 15] was “sharply increased up to about 6 min after the administration of 1-^13C-valine, and thereafter increased gradually up to 20 min” and the “Δ^13C value (‰) at 5 min after the administration” value [2, 15] was 73.54±7.30 ‰. The “slope from 2 to 4 min” value [2, 16] was 24.17±2.32 ‰/2 min, the “time course of Δ^13C values (‰)” value [2, 16] was “sharply increased up to about 6 min after the administration of 1-^13C-valine, and thereafter increased gradually up to 20 min” and the “Δ^13C value (‰) at 5 min after the administration” value [2, 16] was 45.99±5.62 ‰.
In the case of `O=[13CH][C@H](O)[C@@H](O)[C@H](O)CO` [1-^13C-xylose], the “slope from 20 to 30 min after the administration” value ([1]; diabetic rats) was 12.80±2.18 ‰/10 min, the “Δ^13C value (‰) at 30 min after the administration” value ([1]; diabetic rats) was 23.40±7.60 ‰ and the “slope from 20 to 30 min after the administration” value ([1]; normal rats) was 4.61±1.40 ‰/10 min. The “Δ^13C value (‰) at 30 min after the administration” value ([1]; normal rats) was 6.82±3.02 ‰.
With `O=[13C](CO)[C@@H](O)[C@H](O)[C@H](O)CO` [2-^13C-fructose] the “Δ^13C value (‰) at 20 min” value ([2]; rat, in vivo) was 94.68 ‰, the “slope from 2 to 6 min after the administration” value ([2]; rat, in vivo, 100 mg/kg) was 21.4±1.84 ‰/4 min and the “Δ^13C value (‰) at 20 min” value ([2]; rat, in vivo, 100 mg/kg) was 58.75±2.73 ‰.
With `O=C[13C@H](O)[C@@H](O)[C@@H](O)[C@H](O)CO` [2-^13C-galactose] the “time course of Δ^13C values (‰)” value ([2]; rat, in vivo, 100 mg/kg) was “continued increasing up to 20 min”.
In the case of `OC[13CH](O)CO` [2-^13C-glycerol], the “slope from 2 to 7 min after the administration” value [2, 17] was 62.72±3.22 ‰/5 min, the “time course of Δ^13C values (‰)” value [2, 17] was “increased sharply up to about 8 min after the administration, and thereafter increased gradually up to 20 min” and the “Δ^13C value (‰) at 20 min” value [2, 17] was 112.44±5.12 ‰. The “slope from 2 to 7 min after the administration” value [2, 18] was 16.99±1.61 ‰/5 min, the “time course of Δ^13C values (‰)” value [2, 18] was “continued increasing gradually up to 20 min after the administration of 2-^13C-glycerol, and thereafter remained at an almost constant level” and the “Δ^13C value (‰) at 20 min” value [2, 18] was 54.77±4.23 ‰.
For `[13CH3]C(O)C(=O)[O-].[Na+]` (centres unmarked) [3-^13C-sodium lactate], the “^13C value (‰) at 10 min after the administration” value [2, 19] was 202.08±6.05 ‰, the “slope from 2 to 4 min” value [2, 19] was 96.83±17.69 ‰/2 min and the “time course of Δ^13C values (‰)” value [2, 19] was “increased sharply up to about 7 min after the administration, but thereafter decreased gradually up to 20 min”. The “^13C value (‰) at 10 min after the administration” value [2, 20] was 130.30±11.47 ‰, the “slope from 2 to 4 min” value [2, 20] was 60.69±6.80 ‰/2 min and the “time course of Δ^13C values (‰)” value [2, 20] was “increased sharply up to about 5 min after the administration of 3-^13C-sodium lactate, and thereafter increased gradually up to 20 min”.
With `Cc1c(N([13CH3])[13CH3])c(=O)n(-c2ccccc2)n1C` [N,N-dimethyl-^13C-aminopyrin] the “slope from 1 to 2 min after the administration” value [2, 21] was 95.68±16.33 ‰/min, the “time course of Δ^13C values (‰)” value [2, 21] was “increased sharply up to about 5 min after the administration, and thereafter remained at an almost constant level up to 20 min” and the “Δ^13C value (‰) at 20 min” value [2, 21] was 193.62±22.21 ‰. The “slope from 1 to 2 min after the administration” value [2, 22] was 41.16±8.89 ‰/min, the “time course of Δ^13C values (‰)” value [2, 22] was “increased sharply up to about 3 min after the administration of N,N-dimethyl-^13C-aminopyrin, and thereafter increased gradually up to 20 min” and the “Δ^13C value (‰) at 20 min” value [2, 22] was 92.2±12.64 ‰.
With U-^13C-starch the “^13C value (‰) at 30 min after the administration” value [1, 23] was 144.50±23.27 ‰, the “time course of Δ^13C values (‰)” value [1, 23] was “continued increasing up to 20 min” and the “^13C value (‰) at 30 min after the administration” value [1, 24] was 213.89±4.66 ‰. For the same molecule, the “time course of Δ^13C values (‰)” value [1, 24] was “continued increasing up to 20 min”.

From patent US6509002B1, “Diagnostic agent for diabetes” (priority 1997, dated 2003)
